# Read-outs that look alike come from different tables or passages of the source.
# Legend:
# Str. pyogenes Cook = experiment: Sensitivity test (agar dilution); type: cell-based, Streptococcus pyogenes; conditions: Streptococcus pyogenes, Str. pyogenes Cook
# Experimental: (§1) The antibacterial activities were tested against various 18 bacteria (27 standard strains) which are representative bacteria caused clinically infectious disease (Staphylococcus aureus 3 strains, Staphylococcus epidermidis 1 strain, Micrococcus luteus 1 strain, Streptococcus pyogenes 1 strain, Enterococcus faecalis 1 strain, Enterococcus faecium 1 strain, Bacillus subtilis 1 strain, Escherichia coli 3 strains, Klebsiella pneumoniae 1 strain, Proteus mirabilis 1 strain, Proteus vulgaris 2 strains, Pseudomonas aeruginosa 3 strains, Serratia marcescens 2 strains, Enterobacter aerogenes 1 strain, Stenotrophomonas maltophilia 1 strain, Enterobacter cloacae 1 strain, Citrobacter freundii 1 strain, Moraxella catarrhalis 2 strains).
# (§2) According to the standard method of Japan Chemotherapeutic Society (Chemotherapy, vol. […], p 76-79 (1981)) the test was carried out using the agar dilution method. After dissolving test samples in distilled water, agar medium containing the test samples was prepared in such a manner that the final concentration became twice serial dilution by pouring serially diluted combination drug solution or a single drug solution into agar medium. As agar medium was used Mueller Hinton Agar medium (MHA). Then, each strain was cultivated over night at 37° C. in an incubator and suspended in buffered saline solution with gelatin (BSG) in the concentration of about 10^6 CFU/ml. The suspension (about 5 μl) containing test strains was inoculated to the medium containing the test samples by Micro Planter.
# (§3) When the sample is subjected to sensitivity test, this mixed solution was diluted by twice serial dilution method.
# (§4) Furthermore, when the drug is solely used, each test sample was used as it is, and diluted by twice serial dilution method from the maximum concentration to the minimum concentration.
# (§5) FIC index based on MIC value was calculated. […] Namely, when FIC index calculated by the following formula is equal or less than 1, the enhanced effect of the combination drug in said ratio is considered as positive. When FIC index is over 1, the enhanced effect of the combination drug in said ratio is considered as negative.
# (§6) Formula of FIC index: FIC index=(MIC of Drug A in combination/MIC of Drug A alone)+(MIC of Drug B in combination/MIC of Drug B alone) N.C. in tables means being not calculated.
# E. faecium ATCC19434 = experiment: Sensitivity test (agar dilution); type: cell-based, Enterococcus faecium; conditions: Enterococcus faecium, E. faecium ATCC19434
# Experimental: as §1, §2, §3, §4, §5, §6
# B. subtilis ATCC6633 = experiment: Sensitivity test (agar dilution); type: cell-based, Bacillus subtilis; conditions: Bacillus subtilis, B. subtilis ATCC6633
# Experimental: as §1, §2, §3, §4, §5, §6
# E. coli ML1410 RP4 = experiment: microbe, parasite or virus in culture; type: cell-based, Escherichia coli; conditions: Escherichia coli, E. coli ML1410 RP4
# Experimental: as §1, §2, §3, §4, §5, §6
# K. pneumoniae ATCC10031 = experiment: Sensitivity test (agar dilution); type: cell-based, Klebsiella pneumoniae; conditions: Klebsiella pneumoniae, K. pneumoniae ATCC10031
# Experimental: as §1, §2, §3, §4, §5, §6
# P. mirabiris GN2425 = experiment: Sensitivity test (agar dilution); type: cell-based, Proteus mirabilis; conditions: Proteus mirabilis, P. mirabiris GN2425
# Experimental: as §1, §2, §3, §4, §5, §6
# E. aerogenes ATCC13048 = experiment: Sensitivity test (agar dilution); type: cell-based, Enterobacter aerogenes; conditions: Klebsiella aerogenes, E. aerogenes ATCC13048
# Experimental: as §1, §2, §3, §4, §5, §6
# P. aeruginosa IFO3451 = experiment: Sensitivity test (agar dilution); type: cell-based, Pseudomonas aeruginosa; conditions: Pseudomonas aeruginosa, P. aeruginosa IFO3451
# Experimental: as §1, §2, §3, §4, §5, §6
# P. aeruginosa TL-2666 = experiment: Sensitivity test (agar dilution); type: cell-based, Pseudomonas aeruginosa; conditions: Pseudomonas aeruginosa, P. aeruginosa TL-2666
# Experimental: as §1, §2, §3, §4, §5, §6
# P. aeruginosa TL-2667 = experiment: Sensitivity test (agar dilution); type: cell-based, Pseudomonas aeruginosa; conditions: Pseudomonas aeruginosa, P. aeruginosa TL-2667
# Experimental: as §1, §2, §3, §4, §5, §6
# S. maltophilia IID1275 = experiment: Sensitivity test (agar dilution); type: cell-based, Stenotrophomonas maltophilia; conditions: Stenotrophomonas maltophilia, S. maltophilia IID1275
# Experimental: as §1, §2, §3, §4, §5, §6
# M. catarrhalis ATCC25238 = experiment: Sensitivity test (agar dilution); type: cell-based, Moraxella catarrhalis; conditions: Moraxella catarrhalis, M. catarrhalis ATCC25238
# Experimental: as §1, §2, §3, §4, §5, §6
# M. catarrhalis ATCC8176 = experiment: Sensitivity test (agar dilution); type: cell-based, Moraxella catarrhalis; conditions: Moraxella catarrhalis, M. catarrhalis ATCC8176
# Experimental: as §1, §2, §3, §4, §5, §6
smiles,measurement,setting,value
"C[C@@H](O)[C@H]1C(=O)N2C(C(=O)[O-])=C(SC3Cn4cnc[n+]4C3)[C@H](C)[C@H]12 (some centres unmarked) [BIPM, biapenem]",MIC,"Str. pyogenes Cook; Concomitant (BIPM:SM = 1:1), read-out: MIC concomitant",0.004 µg/mL
same,MIC,"Str. pyogenes Cook; drug alone, read-out: MIC alone",0.008 µg/mL
same,MIC,"E. faecium ATCC19434; ATCC19434, Concomitant (BIPM:SM = 1:1), read-out: MIC concomitant",0.25 µg/mL
same,MIC,"E. faecium ATCC19434; ATCC19434, drug alone, read-out: MIC alone",16 µg/mL
same,MIC,"B. subtilis ATCC6633; ATCC6633, Concomitant (BIPM:SM = 1:1), read-out: MIC concomitant",≤ 0.002 µg/mL
same,MIC,"B. subtilis ATCC6633; ATCC6633, drug alone, read-out: MIC alone",0.031 µg/mL
same,MIC,"E. coli ML1410 RP4; ML1410RP4, read-out: MIC alone, drug alone",0.25 µg/mL
same,MIC,"E. coli ML1410 RP4; ML1410RP4, read-out: MIC concomitant, Concomitant (BIPM:SM = 1:1)",0.125 µg/mL
same,MIC,"K. pneumoniae ATCC10031; ATCC10031, Concomitant (BIPM:SM = 1:1), read-out: MIC concomitant",0.016 µg/mL
same,MIC,"K. pneumoniae ATCC10031; ATCC10031, drug alone, read-out: MIC alone",0.031 µg/mL
same,MIC,"P. mirabiris GN2425; GN2425, Concomitant (BIPM:SM = 1:1), read-out: MIC concomitant",0.125 µg/mL
same,MIC,"P. mirabiris GN2425; GN2425, drug alone, read-out: MIC alone",0.25 µg/mL
same,MIC,"E. aerogenes ATCC13048; ATCC13048, Concomitant (BIPM:SM = 1:1), read-out: MIC concomitant",0.063 µg/mL
same,MIC,"E. aerogenes ATCC13048; ATCC13048, drug alone, read-out: MIC alone",0.125 µg/mL
same,MIC,"P. aeruginosa IFO3451; IFO3451, Concomitant (BIPM:SM = 1:1), read-out: MIC concomitant",0.25 µg/mL
same,MIC,"P. aeruginosa IFO3451; IFO3451, drug alone, read-out: MIC alone",0.25 µg/mL
same,MIC,"P. aeruginosa TL-2666; TL2666, Concomitant (BIPM:SM = 1:1), read-out: MIC concomitant",1 µg/mL
same,MIC,"P. aeruginosa TL-2666; TL2666, drug alone, read-out: MIC alone",1 µg/mL
same,MIC,"P. aeruginosa TL-2667; TL2667, Concomitant (BIPM:SM = 1:1), read-out: MIC concomitant",4 µg/mL
same,MIC,"P. aeruginosa TL-2667; TL2667, drug alone, read-out: MIC alone",8 µg/mL
same,MIC,"S. maltophilia IID1275; IID1275, Concomitant (BIPM:SM = 1:1), read-out: MIC concomitant",> 32 µg/mL
same,MIC,"S. maltophilia IID1275; IID1275, drug alone, read-out: MIC alone",> 32 µg/mL
same,MIC,"M. catarrhalis ATCC25238; ATCC25238, Concomitant (BIPM:SM = 1:1), read-out: MIC concomitant",≤ 0.002 µg/mL
same,MIC,"M. catarrhalis ATCC25238; ATCC25238, drug alone, read-out: MIC alone",0.016 µg/mL
same,MIC,"M. catarrhalis ATCC8176; ATCC8176, Concomitant (BIPM:SM = 1:1), read-out: MIC concomitant",≤ 0.002 µg/mL
same,MIC,"M. catarrhalis ATCC8176; ATCC8176, drug alone, read-out: MIC alone",0.031 µg/mL
